Legend:
[1] = test system: HEK 293 cells transfected with pcDNA3.1 without catecholamine receptor sequences; assay: MAP kinase pathway stimulation, Elk-gal/luciferase reporter assay in control HEK 293 cells transfected with pcDNA3.1; conditions: control HEK 293 cells with empty vector pcDNA3.1; compared with cells incubated in the absence of the ligand
[2] = test system: human catecholamine receptor; assay: MAP kinase pathway stimulation, Elk-gal/luciferase reporter assay in HEK 293 cells transfected with H2-3pcDNA3.1; conditions: HEK 293 cells expressing FLAG/D2-tagged human catecholamine receptor; compared with cells incubated in the absence of the ligand

NC1CCc2cc(O)c(O)cc2C1 (centres unmarked) [ADTN67]
fold stimulation of luciferase (MAP kinase activation), pcDNA3.1 [1]: 0.78 fold | fold stimulation of luciferase (MAP kinase activation), H2-3 pcDNA3.1 [2]: 1.93 fold

NC[C@H](O)c1ccc(O)c(O)c1 [Norepinephrine]
fold stimulation of luciferase (MAP kinase activation), pcDNA3.1 [1]: 1.3 fold | fold stimulation of luciferase (MAP kinase activation), H2-3 pcDNA3.1 [2]: 1.69 fold

C=CCN1CCc2c(cc(O)c(O)c2Cl)C(c2ccccc2)C1 (centres unmarked) [SKF82958]
fold stimulation of luciferase (MAP kinase activation), pcDNA3.1 [1]: 0.79 fold | fold stimulation of luciferase (MAP kinase activation), H2-3 pcDNA3.1 [2]: 2.52 fold

NCCc1c[nH]c2ccc(O)cc12 [Serotonin]
fold stimulation of luciferase (MAP kinase activation), pcDNA3.1 [1]: 1 fold | fold stimulation of luciferase (MAP kinase activation), H2-3 pcDNA3.1 [2]: 1.22 fold
